Results published in patent US9980943B2, “Methods of treating muscular dystrophy” (BOARD OF REGENTS OF THE NEVADA SYSTEM OF HIGHER EDUCATION, …, priority 2013, dated 2018).

What was measured:
Assay type in all cases: cell-based, mouse
[1] = tested on: α7 integrin (LacZ reporter in α7βgal+/− myoblasts); experiment: Myoblast α7+/LacZ integrin FDG assay (Burkin assay in myoblasts, 96-well); settings: α7+/LacZ myoblasts, 96-well
[2] = tested on: α7 integrin (LacZ reporter in α7+/LacZ myotubes); experiment: Myotube α7 integrin FDG assay (Burkin assay in myotubes, 96-well); settings: myotubes
[3] = tested on: β-galactosidase in CMV-LacZ C2C12 myoblasts; experiment: CMV-LacZ secondary screen in C2C12 myoblasts (β-Gal stabilizing assay); settings: CMV-LacZ C2C12 myoblasts
In short: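 Stable CMV-LacZ C2C12 clone; six-point curve 0.5–40 μM; duplicates.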

[4] = tested on: β-galactosidase in CMV-LacZ C2C12 myotubes; experiment: CMV-LacZ secondary screen in C2C12 myotubes (β-Gal stabilizing assay); settings: C2C12 CMV-LacZ myotubes, fold relative to DMSO
In short: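 β-gal stabilization was measured in C2C12 myoblasts or myotubes stably transfected with a CMV-driven LacZ construct, using the FDG β-gal assay. Compounds were tested in dose-response at 0.5, 1, 5, 10, 20 and 40 μM, with two replicates per point.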

Row | SMILES | Burkin Assay in Myoblasts, signal relative to DMSO ([1]; 0.5 uM) | Burkin Assay in Myoblasts, signal relative to DMSO ([1]; 1 uM) | Burkin Assay in Myoblasts, signal relative to DMSO ([1]; 5 uM) | Burkin Assay in Myoblasts, signal relative to DMSO ([1]; 10 uM) | Burkin Assay in Myoblasts, signal relative to DMSO ([1]; 20 uM) | Burkin Assay in Myoblasts, signal relative to DMSO ([1]; 40 uM) | Burkin Assay in Myotubes, α7 integrin LacZ reporter signal relative to DMSO ([2]; 0.5 uM) | Burkin Assay in Myotubes, α7 integrin LacZ reporter signal relative to DMSO ([2]; 1 uM) | Burkin Assay in Myotubes, α7 integrin LacZ reporter signal relative to DMSO ([2]; 5 uM) | Burkin Assay in Myotubes, α7 integrin LacZ reporter signal relative to DMSO ([2]; 10 uM) | Burkin Assay in Myotubes, α7 integrin LacZ reporter signal relative to DMSO ([2]; 20 uM) | Burkin Assay in Myotubes, α7 integrin LacZ reporter signal relative to DMSO ([2]; 40 uM) | CMV-LACZ in Myoblasts (β-galactosidase activity relative to DMSO) ([3]; 0.5 uM) | CMV-LACZ in Myoblasts (β-galactosidase activity relative to DMSO) ([3]; 1 uM) | CMV-LACZ in Myoblasts (β-galactosidase activity relative to DMSO) ([3]; 5 uM) | CMV-LACZ in Myoblasts (β-galactosidase activity relative to DMSO) ([3]; 10 uM) | CMV-LACZ in Myoblasts (β-galactosidase activity relative to DMSO) ([3]; 20 uM) | CMV-LACZ in Myoblasts (β-galactosidase activity relative to DMSO) ([3]; 40 uM) | CMV-LACZ in Myotubes, signal relative to DMSO ([4]; 0.5 uM) | CMV-LACZ in Myotubes, signal relative to DMSO ([4]; 1 uM) | also measured
1 | N/C(=N\OC(=O)c1cccc(C(F)(F)F)c1)c1cnccn1 [MLS001098105-01] | 0.9449 | 1.029 | 0.9936 | 0.974 | 1.075 | 1.135 | 1.052 | 1.053 | 0.916 | 0.8354 | 0.8142 | 0.8459 | 1.4689 | 0.8054 | 0.9282 | 0.9421 | 1.0381 | 0.8704 | 0.9248 | 1.2543 | CMV-LACZ in Myotubes, signal relative to DMSO ([4]; 5 uM): 0.9211; CMV-LACZ in Myotubes, signal relative to DMSO ([4]; 10 uM): 1.3183; CMV-LACZ in Myotubes, signal relative to DMSO ([4]; 20 uM): 0.9671; CMV-LACZ in Myotubes, signal relative to DMSO ([4]; 40 uM): 1.2553
2 | CC(=O)Nc1ccc(NC(=O)c2cc(=O)c3cc(C)cc(C)c3o2)cc1 [MLS001200396-01] | 0.8827 | 0.9245 | 0.5378 | 1.1321 | 0.4827 | 0.4794 | 0.9301 | 0.9487 | 0.9829 | 1.264 | 0.6408 | 0.7114 | 1.0489 | 0.9157 | 1.0212 | 1.2107 | 0.7252 | 0.9011 | 0.9137 | 0.8442 | CMV-LACZ in Myotubes, signal relative to DMSO ([4]; 5 uM): 0.8987; CMV-LACZ in Myotubes, signal relative to DMSO ([4]; 10 uM): 0.7738; CMV-LACZ in Myotubes, signal relative to DMSO ([4]; 20 uM): 0.9644; CMV-LACZ in Myotubes, signal relative to DMSO ([4]; 40 uM): 0.9733
